Measured values: patent US20150274719A1, “AMINO-SUBSTITUTED IMIDAZO[1,2-A]PYRIDINECARBOXAMIDES AND THEIR USE” (BAYER PHARMA AKTIENGESELLSCHAFT, priority 2012, published 2015)
Where a name gives a salt, the structure may show the parent alone.

target: T1, recombinant guanylate cyclase reporter cell line (Rattus norvegicus, UniProt P19686+P20595); experiment: Action on recombinant guanylate cyclase reporter cell line; assay type: cell-based; details: in some cases mean values from individual determinations
T1 construct: expressed in transfected cells; host or cells: recombinant reporter cell line
T1 sequence (P19686 1-690): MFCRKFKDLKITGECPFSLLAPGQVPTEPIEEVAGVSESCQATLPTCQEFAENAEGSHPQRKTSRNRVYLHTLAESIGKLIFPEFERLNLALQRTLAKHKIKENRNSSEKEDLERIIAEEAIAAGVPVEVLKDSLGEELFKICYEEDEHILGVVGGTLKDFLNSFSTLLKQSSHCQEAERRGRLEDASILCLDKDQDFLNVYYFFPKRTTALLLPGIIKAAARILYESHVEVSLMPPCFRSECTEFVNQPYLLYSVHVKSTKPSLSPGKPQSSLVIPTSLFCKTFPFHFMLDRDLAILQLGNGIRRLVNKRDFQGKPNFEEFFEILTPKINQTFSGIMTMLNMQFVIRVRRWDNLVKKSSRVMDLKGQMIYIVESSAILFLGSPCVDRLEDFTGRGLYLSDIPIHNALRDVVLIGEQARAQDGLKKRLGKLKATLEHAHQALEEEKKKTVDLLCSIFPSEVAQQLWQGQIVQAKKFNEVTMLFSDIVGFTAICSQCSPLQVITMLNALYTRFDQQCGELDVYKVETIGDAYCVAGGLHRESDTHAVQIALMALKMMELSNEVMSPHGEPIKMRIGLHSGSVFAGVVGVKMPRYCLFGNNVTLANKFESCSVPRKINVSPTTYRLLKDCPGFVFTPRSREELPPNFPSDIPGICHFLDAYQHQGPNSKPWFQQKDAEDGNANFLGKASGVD
T1 sequence (P20595 1-619): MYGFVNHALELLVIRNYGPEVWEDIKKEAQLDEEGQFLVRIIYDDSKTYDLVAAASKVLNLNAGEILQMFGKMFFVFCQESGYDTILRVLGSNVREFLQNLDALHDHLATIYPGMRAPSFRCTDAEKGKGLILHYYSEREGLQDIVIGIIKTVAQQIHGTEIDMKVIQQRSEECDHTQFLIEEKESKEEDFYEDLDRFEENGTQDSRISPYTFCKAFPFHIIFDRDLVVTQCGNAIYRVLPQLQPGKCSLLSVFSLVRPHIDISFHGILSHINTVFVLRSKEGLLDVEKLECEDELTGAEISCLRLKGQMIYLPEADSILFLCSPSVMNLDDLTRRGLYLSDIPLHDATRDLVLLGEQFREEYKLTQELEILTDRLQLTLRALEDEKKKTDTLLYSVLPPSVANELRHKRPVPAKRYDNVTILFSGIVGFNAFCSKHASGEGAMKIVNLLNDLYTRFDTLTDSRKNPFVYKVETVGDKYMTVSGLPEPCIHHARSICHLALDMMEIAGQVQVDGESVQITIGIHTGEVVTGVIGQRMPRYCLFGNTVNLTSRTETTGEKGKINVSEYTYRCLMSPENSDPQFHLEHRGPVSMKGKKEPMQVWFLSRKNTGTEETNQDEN
Summary of the method: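 Whole-cell reporter assay with recombinant guanylate cyclase; endpoint = minimal effective concentration.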

SMILES | MEC (minimal effective concentration) [µM]
Cc1cc(OCc2c(F)cccc2F)c2nc(C)c(C(=O)N[C@H]3C[C@H]4CN(C)CCN4C3)n2c1 [Example 314, 8-[(2,6-Difluorobenzyl)oxy]-2,6-dimethyl-N-[(7S,8aS)-2-methyloctahydropyrrolo[1,2-a]pyrazin-7-yl]imidazo[1,2-a]pyridine-3-carboxamide] | 0.30
Cc1cc(OCc2c(F)cccc2F)c2nc(C)c(C(=O)NC[C@@H]3CCCCN3)n2c1 [Example 172, 8-[(2,6-Difluorobenzyl)oxy]-2,6-dimethyl-N-[(2S)-piperidin-2-ylmethyl]imidazo[1,2-a]pyridine-3-carboxamide] | 0.30
CCCC(C)(N)CNC(=O)c1c(C)nc2c(OCc3c(F)cccc3F)cc(CC)cn12 (stereo not drawn) [Example 323, ent-N-(2-amino-2-methylpentyl)-8-[(2,6-difluorobenzyl)oxy]-6-ethyl-2-methylimidazo[1,2-a]pyridine-3-carboxamide] | 0.30
Cc1nc2c(OCc3c(F)cccc3F)cccn2c1C(=O)NC1CN2CCC1CC2 (stereo not drawn) [Example 92, N-(1-azabicyclo[2.2.2]oct-3-yl)-8-[(2,6-difluorobenzyl)oxy]-2-methylimidazo[1,2-a]-pyridine-3-carboxamide] | 0.30
Cc1nc2c(OCc3c(F)cccc3F)cc(Cl)cn2c1C(=O)NCC1(N)CCCC1 [Example 42, N-[(1-aminocyclopentyl)methyl]-6-chloro-8-[(2,6-difluorobenzyl)oxy]-2-methylimidazo[1,2-a]pyridine-3-carboxamide] | 1.00
CCC(C)(N)CNC(=O)c1c(C)nc2c(OCc3c(F)cccc3F)cc(C(F)F)cn12 (single isomer, unassigned; enantiomer a) [Example 288, ent-N-(2-amino-2-methylbutyl)-8-[(2,6-difluorobenzyl)oxy]-6-(difluoromethyl)-2-methylimidazo[1,2-a]pyridine-3-carboxamide (Enantiomer A)] | 0.3
Cc1cc(OCc2c(F)cccc2F)c2nc(C)c(C(=O)NCCN3CCC(F)(F)CC3)n2c1 [Example 163, 8-[(2,6-difluorobenzyl)oxy]-N-[2-(4,4-difluoro-piperidin-1-yl)ethyl]-2,6-dimethylimidazo[1,2-a]pyridine-3-carboxamide] | 0.30
Cc1nc2c(OCc3c(F)cccc3F)cccn2c1C(=O)N[C@H]1CCCNC1 [Example 60, 8-[(2,6-difluorobenzyl)oxy]-2-methyl-N-[(3S)-piperidin-3-yl]imidazo[1,2-a]pyridine-3-carboxamide dihydrochloride] | 0.30
Cc1cc(OCc2c(F)cccc2F)c2nc(C)c(C(=O)NC(CN)c3cccc(OC(F)F)c3)n2c1 (racemic) [Example 392, rac-N-{2-amino-1-[3-(difluoromethoxy)phenyl]ethyl}-8-[(2,6-difluorobenzyl)oxy]-2,6-dimethylimidazo[1,2-a]pyridine-3-carboxamide] | 1.00
Cc1nc2c(OCc3c(F)cccc3F)cccn2c1C(=O)NCC(C)(C)N(C)C [Example 145, 8-[(2,6-difluorobenzyl)oxy]-N-[2-(dimethylamino)-2-methylpropyl]-2-methylimidazo[1,2-a]pyridine-3-carboxamide] | 3.00
CCC(C)(N)CNC(=O)c1c(C)nc2c(OCc3c(F)ccc(F)c3F)cc(C)cn12 (single isomer, unassigned; enantiomer a) [Example 300, ent-N-(2-amino-2-methylbutyl)-2,6-dimethyl-8-[(2,3,6-trifluorobenzyl)oxy]imidazo[1,2-a]pyridine-3-carboxamide (Enantiomer A) hydrochloride] | 0.10
[2H]C([2H])(Oc1cccn2c(C(=O)NC(CN)c3ccc(F)c(F)c3)c(C)nc12)c1c(F)cccc1F (stereo not drawn) [Example 97, ent-N-[2-Amino-1-(3,4-difluorophenyl)ethyl]-8-{[(2,6-difluorophenyl)(^2H2)methyl]oxy}-2-methylimidazo[1,2-a]pyridine-3-carboxamide] | 0.10
CCCC(C)(N)CNC(=O)c1c(CC)nc2c(OCc3c(F)cccc3F)cc(C)cn12 (stereo not drawn) [Example 338, ent-N-(2-amino-2-methylpentyl)-8-[(2,6-difluorobenzyl)oxy]-2-ethyl-6-methylimidazo[1,2-a]pyridine-3-carboxamide] | 0.10
Cc1cc(OCc2c(F)cccc2F)c2nc(C)c(C(=O)NC3(C)CC3(C)N)n2c1 (racemic) [Example 320, rac-N-(2-amino-1,2-dimethylcyclopropyl)-8-[(2,6-difluorobenzyl)oxy]-2,6-dimethylimidazo[1,2-a]pyridine-3-carboxamide (racemate)] | 0.30
Cc1cc(OCc2c(F)cccc2F)c2nc(C)c(C(=O)NCC(C)(C)NCCO)n2c1 [Example 349, 8-[(2,6-Difluorobenzyl)oxy]-N-{2-[(2-hydroxyethyl)amino]-2-methylpropyl}-2,6-dimethylimidazo[1,2-a]pyridine-3-carboxamide] | 1.00
Cc1cc(OCc2c(F)cccc2F)c2nc(C)c(C(=O)NCC(C)(N)Cc3ccccn3)n2c1 (racemic) [Example 297, rac-N-[2-amino-2-methyl-3-(pyridin-2-yl)propyl]-8-[(2,6-difluorobenzyl)oxy]-2,6-dimethylimidazo[1,2-a]pyridine-3-carboxamide] | 0.10
Cc1nc2c(OCc3c(F)cccc3F)cccn2c1C(=O)NCC(N)CC(F)(F)F (single isomer, unassigned) [Example 127, ent-N-(2-Amino-4,4,4-trifluorobutyl)-8-[(2,6-difluorobenzyl)oxy]-2-methylimidazo[1,2-a]pyridine-3-carboxamide] | 1.00
Cc1nc2c(OCc3c(F)cccc3F)cccn2c1C(=O)NCC(N)C(F)(F)F (single isomer, unassigned) [Example 208, ent-N-(2-Amino-3,3,3-trifluoropropyl)-8-[(2,6-difluorobenzyl)oxy]-2-methylimidazo[1,2-a]-pyridine-3-carboxamide] | 0.30
Cc1cc(OCc2c(F)cccc2F)c2nc(C)c(C(=O)NCC(C)(N)CCO)n2c1 (single isomer, unassigned; enantiomer a) [Example 271, ent-N-(2-Amino-4-hydroxy-2-methylbutyl)-8-[(2,6-difluorobenzyl)oxy]-2,6-dimethylimidazo[1,2-a]pyridine-3-carboxamide (Enantiomer A)] | 0.30
CCCC(C)(N)CNC(=O)c1c(C)nc2c(OCc3c(F)cccc3F)cc(Br)cn12 (stereo not drawn) [Example 306, ent-N-(2-amino-2-methylpentyl)-6-bromo-8-[(2,6-difluorobenzyl)oxy]-2-methylimidazo[1,2-a]pyridine-3-carboxamide] | 0.10
Cc1nc2c(OCc3c(F)cccc3F)cccn2c1C(=O)NC(CN)c1ccc(Cl)cc1 (racemic) [Example 14, rac-N-[2-Amino-1-(4-chlorophenyl)ethyl]-8-[(2,6-difluorobenzyl)oxy]-2-methylimidazo[1,2-a]-pyridine-3-carboxamide dihydrochloride] | 1.00
Cc1nc2c(OCc3c(F)cccc3Cl)cccn2c1C(=O)NC(CN)c1ccc(F)c(F)c1 (stereo not drawn) [Example 102, ent-N-[2-amino-1-(3,4-difluorophenyl)ethyl]-8-[(2-chloro-6-fluorobenzyl)oxy]-2-methylimidazo[1,2-a]pyridine-3-carboxamide] | 1.00
CCCC[C@H](CNCCOC)NC(=O)c1c(C)nc2c(OCc3c(F)cccc3F)cccn12 [Example 70, ent-8-[(2,6-difluorobenzyl)oxy]-N-{(2R)-1-[(2-methoxyethyl)amino]hexan-2-yl}-2-methylimidazo[1,2-a]pyridine-3-carboxamide] | 1.00
CCC(C)(N)CNC(=O)c1c(C)nc2c(OCc3c(F)cccc3F)cc(CF)cn12 (stereo not drawn) [Example 404] | 0.30
